Assays:
[1] = Water solubility of 1-dialkylphosphorylalkanes; assay type: physicochemical
Excerpt: The DIPA compounds are colorless liquids with a density less than water. These structures differ from those described by Rowsell and Spring U.S. Pat. No. 4,070,496 because '496 structures have their “head” (phosphine oxide group) covered by larger, more lipophilic groups. […] The applicant synthesized these analogs (which are achiral, by contrast to the structures of '496, which are >95% chiral). […] This increased water-solubility is striking (Table 3). Additional details on the bioactivity and pharmacology of these DIPA can be found in the paper by Yang et al., [(2017). A novel TRPM8 agonist relieves dry eye discomfort. BMC Ophthalmology, 17(1). https://doi.org/10.1186/s12886-017-0495-2], incorporated herein by reference.

TRPM8 receptor = TRPM8 receptor (Homo sapiens, UniProt Q7Z2W7); experiment: TRPM8 receptor agonist activity; assay type: cell-based
TRPM8 receptor, sequence (Q7Z2W7 whole entry): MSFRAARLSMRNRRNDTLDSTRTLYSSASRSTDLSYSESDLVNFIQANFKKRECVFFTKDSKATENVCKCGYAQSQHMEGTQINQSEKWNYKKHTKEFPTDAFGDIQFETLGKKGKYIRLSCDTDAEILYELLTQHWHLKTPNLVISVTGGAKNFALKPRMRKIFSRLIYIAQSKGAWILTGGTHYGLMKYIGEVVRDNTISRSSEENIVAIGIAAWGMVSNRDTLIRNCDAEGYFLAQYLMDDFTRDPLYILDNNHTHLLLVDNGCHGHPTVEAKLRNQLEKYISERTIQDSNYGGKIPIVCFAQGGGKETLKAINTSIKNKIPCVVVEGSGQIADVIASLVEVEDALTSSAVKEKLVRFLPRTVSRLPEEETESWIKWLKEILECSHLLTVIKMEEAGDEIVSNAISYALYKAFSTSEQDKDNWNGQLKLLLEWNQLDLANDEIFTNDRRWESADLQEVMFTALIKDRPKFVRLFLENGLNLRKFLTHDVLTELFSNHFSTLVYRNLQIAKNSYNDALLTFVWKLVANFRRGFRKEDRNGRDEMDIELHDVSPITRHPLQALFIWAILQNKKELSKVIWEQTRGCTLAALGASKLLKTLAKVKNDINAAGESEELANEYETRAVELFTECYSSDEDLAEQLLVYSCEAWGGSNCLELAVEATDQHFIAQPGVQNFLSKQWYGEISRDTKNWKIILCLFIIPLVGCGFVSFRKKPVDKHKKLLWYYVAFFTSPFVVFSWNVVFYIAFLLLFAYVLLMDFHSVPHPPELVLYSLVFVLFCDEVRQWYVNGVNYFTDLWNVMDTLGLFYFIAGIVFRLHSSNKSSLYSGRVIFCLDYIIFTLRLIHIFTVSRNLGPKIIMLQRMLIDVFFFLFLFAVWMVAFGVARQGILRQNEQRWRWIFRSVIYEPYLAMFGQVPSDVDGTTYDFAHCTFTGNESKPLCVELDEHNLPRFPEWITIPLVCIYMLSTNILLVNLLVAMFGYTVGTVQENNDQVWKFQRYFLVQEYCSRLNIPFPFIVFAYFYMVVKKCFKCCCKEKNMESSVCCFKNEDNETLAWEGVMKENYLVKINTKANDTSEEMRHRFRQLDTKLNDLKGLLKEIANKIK

[2] = Beverage swallowing test: duration of cooling in throat and chest and adverse taste ranking; assay type: in vivo, human; details: for Duration of Cooling: 0.4 mg/mL in Monk fruit sweetened water (1 pack Splenda Monk Fruit per 100 mL), 30 mL, throat; for Dose sufficient for a robust, immediate cooling response: in 15 mL
[3] = as above; assay type: in vivo, human; details: for Onset of cooling action in the chest (in words): in vivo; for Duration of effects (in words): compared with the shorter DIPA analogs; for Duration Cool: 20 mg in 50 mL (0.4 mg/mL); for Min. (cooling): 50 mL beverage
Excerpt: DIPA compounds dissolved in water have an unpleasant, bitter, and metallic taste. The goal of the experiments was to find an adjunct that would make the DIPA beverage palatable. The anatomic sites for bitterness (adverse taste) are primarily on the dorsal surface of the posterior one-third of the tongue. The coolness and refreshment areas are on the hypopharynx and the upper one-third of the esophagus (FIG. 1). These are two different anatomic sites. Sensations of coolness from the oral cavity and oropharynx are not the primary targets. The esophagus is in the center of the thorax. When its lumen feels “cool,” this is like turning on the central air conditioner for the body. The goal of the beverage is to turn on this central air conditioning for at least 30 min and preferably longer without adverse tastes in the oral cavity. That is, the goal is to produce cool in the center of the chest but without bitter taste. A standard procedure was set. The cooling agent at various concentrations was made up to 50 mL with a liquid in a plastic cup (Flak Tek, Inc. South Carolina), beaker, whiskey glass, or bottle. For example, the final concentration of the coolant in the test solution may range from 0.1 to 0.5 mg/mL. The temperature of the liquid was measured and then swallowed. For example, 50 mL could be swallowed in five gulps or sipped. The duration of cooling in the throat and chest was recorded at various intervals until the cooling disappeared. The ranking of adverse taste was on a scale of 0 (no adverse taste), 1 (mild taste), 2 (moderate taste), or 3 (adverse taste). The value was for at least three trials per beverage.
Examples of test procedures and results. The usual method was to prepare a 2-mL vial containing a DIPA dissolved in water. The contents of the vial were added to beverages such as beer, soda drinks, fruit juice, coffee, tea, or water. A taste-modulating adjunct such as a sweetener can be in the 2-mL vial or present in the beverage. The drink is gulped at about 5 mL per swallow. The time and temperatures are noted. The onset of coolness in the center of the upper chest usually occurs within 3 min. For active compounds, this effect was pleasant and, depending on dose, could last for 10 minutes, an hour, or more. Gulping the liquid was important. When held in the mouth, the drink is cool and may have taste, but cooling in the center of the chest is reduced. Thus, sipping is not the correct method of drinking. Using these methods, a bottle of beer (e.g., ˜330 mL containing 33 mg of DIPA-1-9), if drank in a leisurely setting for one hour, can provide comfortable body cooling for 3 hr. Similarly, a smaller bottle of carbonated soda water (e.g., 200 mL), containing 15 mg of DIPA-1-6 produced immediate cooling relief for 30 min for individuals, for example, taking a break from playing tennis in the heat. For pharmaceutical uses, a tinted bottle with 20 mg of DIPA-1-9 in 50 mL of water with Splenda's Monk Fruit dissolved in it would be palatable and relieve the discomforts of indigestion.

TRPA1 = biological target: T1, TRPA1 (Homo sapiens, UniProt O75762); experiment: Activation of TRPA1-transfected cells; assay type: cell-based
T1 construct: expressed in transfected cells
T1 sequence (O75762 whole entry): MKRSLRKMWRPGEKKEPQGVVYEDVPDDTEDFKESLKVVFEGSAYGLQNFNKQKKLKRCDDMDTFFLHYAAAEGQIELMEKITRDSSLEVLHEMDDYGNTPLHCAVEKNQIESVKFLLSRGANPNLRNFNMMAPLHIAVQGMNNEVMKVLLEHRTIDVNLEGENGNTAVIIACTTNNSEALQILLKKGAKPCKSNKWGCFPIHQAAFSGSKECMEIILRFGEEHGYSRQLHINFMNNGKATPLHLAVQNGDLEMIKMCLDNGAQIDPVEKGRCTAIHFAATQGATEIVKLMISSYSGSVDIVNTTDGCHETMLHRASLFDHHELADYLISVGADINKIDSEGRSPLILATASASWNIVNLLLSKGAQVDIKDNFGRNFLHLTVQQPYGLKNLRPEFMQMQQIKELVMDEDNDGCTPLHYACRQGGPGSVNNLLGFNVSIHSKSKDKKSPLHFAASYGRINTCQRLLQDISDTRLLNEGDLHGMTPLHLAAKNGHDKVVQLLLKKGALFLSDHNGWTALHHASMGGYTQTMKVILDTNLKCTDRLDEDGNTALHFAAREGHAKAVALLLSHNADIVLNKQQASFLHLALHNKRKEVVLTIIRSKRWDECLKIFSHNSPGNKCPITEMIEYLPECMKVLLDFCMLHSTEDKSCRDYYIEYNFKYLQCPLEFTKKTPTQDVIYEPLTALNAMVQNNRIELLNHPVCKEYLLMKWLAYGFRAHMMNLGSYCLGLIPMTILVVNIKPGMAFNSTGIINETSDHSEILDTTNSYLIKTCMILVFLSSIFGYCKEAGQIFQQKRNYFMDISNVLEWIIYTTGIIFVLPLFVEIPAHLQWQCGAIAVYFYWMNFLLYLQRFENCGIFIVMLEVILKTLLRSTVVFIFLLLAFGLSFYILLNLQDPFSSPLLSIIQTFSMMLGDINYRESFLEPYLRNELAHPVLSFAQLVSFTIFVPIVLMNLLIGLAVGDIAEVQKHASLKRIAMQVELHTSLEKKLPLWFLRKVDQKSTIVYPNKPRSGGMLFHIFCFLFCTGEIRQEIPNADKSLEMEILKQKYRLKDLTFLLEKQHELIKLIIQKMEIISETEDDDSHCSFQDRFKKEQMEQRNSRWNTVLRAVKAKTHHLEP

[4] = DIPA cooling on the effects of a hotpot meal; assay type: in vivo, human; details: 0.5 mg/mL in water containing 1 packet of Splenda's Monk Fruit sweetener per 200 mL
Excerpt: DIPA Cooling on the effects of a “hotpot” meal. A hotpot meal has been prevalent in central China (Sichuan province) for over a thousand years and has become very popular in many parts of Asia today. It is a family affair with a boiling pot of broth in the middle of the table, and everyone cooks food in the broth. Exceptionally spicy chili pepper is in the soup, and even in summer, the air-conditioning is off, so everybody sweats. The general idea is to get so hot that one becomes desensitized to the hot weather. […] Another method for relief from the hotpot is to incorporate it into a beer at DIPA-1-9 0.1 mg/ml, and commercialize it as “HotPot Beer.”

TRPV1 = biological target: T2, TRPV1 (Homo sapiens, UniProt Q8NER1); experiment: Activation of TRPV1-transfected cells; assay type: cell-based
T2 construct: expressed in transfected cells
T2 sequence (Q8NER1 whole entry): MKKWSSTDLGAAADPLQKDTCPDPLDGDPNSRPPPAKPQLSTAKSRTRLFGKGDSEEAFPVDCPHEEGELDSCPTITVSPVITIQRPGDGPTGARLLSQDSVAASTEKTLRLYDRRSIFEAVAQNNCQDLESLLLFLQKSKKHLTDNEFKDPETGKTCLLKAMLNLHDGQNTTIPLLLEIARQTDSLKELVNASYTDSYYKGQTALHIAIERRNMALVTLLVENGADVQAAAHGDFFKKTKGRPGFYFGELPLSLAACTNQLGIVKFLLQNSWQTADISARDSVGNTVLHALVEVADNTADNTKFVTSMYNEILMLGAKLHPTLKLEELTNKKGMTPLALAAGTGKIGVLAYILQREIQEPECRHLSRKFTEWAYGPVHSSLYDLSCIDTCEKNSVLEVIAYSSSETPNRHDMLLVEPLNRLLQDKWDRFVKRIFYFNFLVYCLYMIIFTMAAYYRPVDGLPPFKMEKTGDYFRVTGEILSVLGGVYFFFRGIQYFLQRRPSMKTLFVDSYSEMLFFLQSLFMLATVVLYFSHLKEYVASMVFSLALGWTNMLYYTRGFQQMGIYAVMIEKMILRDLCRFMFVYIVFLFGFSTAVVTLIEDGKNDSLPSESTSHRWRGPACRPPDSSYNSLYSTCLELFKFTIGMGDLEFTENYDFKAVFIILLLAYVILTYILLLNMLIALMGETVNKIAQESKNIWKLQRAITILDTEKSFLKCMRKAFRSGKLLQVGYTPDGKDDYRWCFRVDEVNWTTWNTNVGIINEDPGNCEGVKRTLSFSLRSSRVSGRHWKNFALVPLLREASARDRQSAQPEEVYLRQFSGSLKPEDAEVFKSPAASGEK

## CCCCCCCCCCP(=O)(C(C)C)C(C)C [DIPA-1-10]
[1]
  Water solubility: <3 mg/mL
TRPM8 receptor
  EC50: inactive
[2]
  Duration of Cooling: 0 min

## CCCCCCCP(=O)(C(C)C)C(C)C [DIPA-1-7, 1-Di(isopropyl)-phosphinoyl-heptane]
[2]
  Duration of Cooling: 36 min
[3]
  Onset of cooling action in the chest (in words): immediate

## CCCCCCCCP(=O)(C(C)C)C(C)C [DIPA-1-8, 1-Di(isopropyl)-phosphinoyl-octane]
[2]
  Duration of Cooling: 43 min
[3]
  Duration of effects (in words): more long-lasting
[3]; in a whiskey glass
  Effective dose: 15 mg

## CCCCCCP(=O)(C(C)C)C(C)C [DIPA-1-6, 1-Di(isopropyl)-phosphinoyl-hexane]
[2]
  Duration of Cooling: 20 min
  Dose sufficient for a robust, immediate cooling response: 10 mg
[3]; 200 mL carbonated soda water containing 15 mg
  Duration of immediate cooling relief: 30 min
[3]
  Onset of cooling action in the chest (in words): immediate

## CCCCCP(=O)(C(C)CC)C(C)CC (centres unmarked) [di-sec-butyl- pentane]
[1]
  Water solubility: 22 mg/mL

## CCCCCCCCCP(=O)(C(C)C)C(C)C [DIPA-1-9, 1-Diisopropyl-phosphinoyl-nonane]
TRPA1
  Activation of TRPA1-transfected cells: does not activate
[2]
  Duration of Cooling: 48 min
[4]
  Onset of relief: within several minutes
  Relief after a hotpot meal (in words): relieves the pain in the oral cavity and throat
[3]; 0.4 mg/L, apple juice (Martinelli, Mott's), 21 °C
  Duration: 34 min
[3]; 0.4 mg/L, grape juice (Welch Grape), 20 °C
  Duration: 35 min
[3]; 0.4 mg/L, guarana juice soda (Guarana Antarctica), 10 °C
  Duration: 40 min
[3]; 0.4 mg/L, orange juice (fresh-squeezed), 8 °C
  Duration: 40 min
[3]; 0.4 mg/L, sweetened soda (Coca-Cola), 7 °C
  Duration: 25 min
[3]; 0.4 mg/L, wine (Moscato d'Asti), 8 °C
  Duration: 36 min
[3]; 0.4 mg/mL, hot cappuccino drink (3 Coracoes, Brazil), 70 °C
  Duration: 30 min
[3]; 0.4 mg/mL, hot coffee + herbal sweetener (117 + Stevia extracts), 75 °C
  Duration: 36 min
[3]; 0.4 mg/mL, hot coffee cream/sugar (117, Nescafe), 65 °C
  Duration: 35 min
[3]; 0.4 mg/mL, hot coffee-no cream or sugar (117, Nescafe), 62 °C
  Duration: 30 min
[3]; 0.4 mg/mL, hot water + monk fruit (Splenda monk fruit), 50 °C
  Duration: 42 min
[3]; 0.4 mg/mL, hot water + monk fruit (Splenda monk fruit), 70 °C
  Duration: 38 min
[3]; 0.4 mg/mL, iced cold cappuccino (Starbuck's frappaccino), 8 °C
  Duration: 25 min
[3]; 0.4 mg/mL, red tea (Peach-Ceylon, no sweetener), 46 °C
  Duration: 31 min
[3]; 0.4 mg/mL, sweetened tea (Ito En + 10% sucrose), 10 °C
  Duration: 38 min
[3]; 0.4 mg/mL, sweetened tea (Ito En + Truvia or Monk's Fruit), 10 °C
  Duration: 40 min
[3]; 0.4 mg/mL, unsweetened green tea (Ito En), 10 °C
  Duration: 35 min
[3]; carbonated water (Perrier, La Croix), 8 °C
  Duration Cool: 45 min
[3]; water (Crystal Geyser), 10 °C
  Duration Cool: 48 min
[3]; water (Crystal Geyser), 25 °C
  Duration Cool: 42 min
[3]; water (Crystal Geyser), 74 °C
  Duration Cool: 45 min
[3]; water + herbal sweetener (+Stevia leaf), 8 °C
  Duration Cool: 40 min
[3]; water + herbal sweetener (+Stevia leaf), 22 °C
  Duration Cool: 35 min
[3]; water + herbal sweetener (+Stevia leaf), 72 °C
  Duration Cool: 32 min
[3]; water + synthetic sweetener (Neotame at 0.2 mg/mL), 10 °C
  Duration Cool: 40 min
[3]; 0.2 mg/mL + Stevia, 20 °C
  Min. (cooling): 12 min
[3]; 0.4 mg/mL + Stevia, 20 °C
  Min. (cooling): 35 min
[3]; 0.4 mg/mL + Sucrose (10%), 20 °C
  Min. (cooling): 42 min
[3]; 0.8 mg/mL + Stevia, 20 °C
  Min. (cooling): 55 min
[3]; 0.8 mg/mL + Sucrose (10%), 20 °C
  Min. (cooling): 39 min
[3]; 0.8 mg/mL + Sucrose (15%), 20 °C
  Min. (cooling): 45 min
[3]; Sake (Japanese rice wine), 10 °C
  Duration: 32 min
[3]; beer (Heineken), 7 °C
  Duration: 44 min
[3]; bottle of beer ~330 mL containing 33 mg, drunk over one hour
  Duration of comfortable body cooling: 3 h
[3]
  Duration of effects (in words): more long-lasting
[3]; ginger ale (Canada Dry), 11 °C
  Duration: 25 min
[3]; ginger beer, juice (Q beer, Suja), 9 °C
  Duration: 40 min
[3]; in a standard beer bottle
  Effective dose: 33 mg
[3]; non-alcoholic beer (Heineken 00), 7 °C
  Duration: 40 min
[3]; tonic water with quinine (Schweppes), 7 °C
  Duration: 42 min
[3]; wheat ale (Blue Moon), 9 °C
  Duration: 35 min
TRPV1
  Activation of TRPV1-transfected cells: does not activate

## CCCCCP(=O)(C(C)C)C(C)C [DIPA-1-5, 1-Di(isopropyl)-phosphinoyl-pentane]
[2]
  Duration of Cooling: 12 min
  Dose sufficient for a robust, immediate cooling response: 10 mg
[3]
  Onset of cooling action in the chest (in words): immediate

Reference: patent publication US12667122B2, “Taste-modulation of cooling agents in beverages” (priority 2019, dated 2026)
